Legend:
[1] = target: T1, ABL2/ARG (Homo sapiens, UniProt P42684); test: HotSpot kinase assay; format: biochemical; conditions: read-out: % Enzyme Activity (relative to DMSO controls)
T1 construct: purchased Reaction Biology Corporation

[2] = target: T2, AKT3 (Homo sapiens, UniProt Q9Y243); test: biochemical
T2 construct: purchased Reaction Biology Corporation

[3] = target: T3, AURORA C (Homo sapiens, UniProt Q9UQB9); test: HotSpot kinase assay; format: biochemical; conditions: read-out: % Enzyme Activity (relative to DMSO controls)
T3 construct: purchased Reaction Biology Corporation

[4] = target: T4, BLK (Homo sapiens, UniProt P51451); test: HotSpot kinase assay; format: biochemical; conditions: read-out: % Enzyme Activity (relative to DMSO controls)
T4 construct: purchased Reaction Biology Corporation

[5] = target: T5, CDK1/cyclin E (Homo sapiens, UniProt P06493); test: HotSpot kinase assay; format: biochemical; conditions: read-out: % Enzyme Activity (relative to DMSO controls)
T5 construct: purchased Reaction Biology Corporation

[6] = target: T6, CDK14/cyclin Y (PFTK1) (Homo sapiens, UniProt O94921); test: HotSpot kinase assay; format: biochemical; conditions: read-out: % Enzyme Activity (relative to DMSO controls)
T6 construct: purchased Reaction Biology Corporation

[7] = target: T7, CDK16/cyclin Y (PCTAIRE) (Homo sapiens, UniProt Q00536); test: HotSpot kinase assay; format: biochemical; conditions: read-out: % Enzyme Activity (relative to DMSO controls)
T7 construct: purchased Reaction Biology Corporation

[8] = target: T8, CDK4/cyclin D1 (Homo sapiens, UniProt P11802); test: HotSpot kinase assay; format: biochemical; conditions: read-out: % Enzyme Activity (relative to DMSO controls)
T8 construct: purchased Reaction Biology Corporation

[9] = target: T9, CHK2 (Homo sapiens, UniProt O96017); test: HotSpot kinase assay; format: biochemical; conditions: read-out: % Enzyme Activity (relative to DMSO controls)
T9 construct: purchased Reaction Biology Corporation

[10] = target: T10, CLK3 (Homo sapiens, UniProt P49761); test: HotSpot kinase assay; format: biochemical; conditions: read-out: % Enzyme Activity (relative to DMSO controls)
T10 construct: purchased Reaction Biology Corporation

[11] = target: T11, ERBB2/HER2 (Homo sapiens, UniProt P04626); test: biochemical; conditions: read-out: % Enzyme Activity (relative to DMSO controls)
T11 construct: purchased Reaction Biology Corporation

[12] = target: T12, FES/FPS (Homo sapiens, UniProt P07332); test: HotSpot kinase assay; format: biochemical; conditions: read-out: % Enzyme Activity (relative to DMSO controls)
T12 construct: purchased Reaction Biology Corporation

[13] = target: T13, FGFR2 (Homo sapiens, UniProt P21802); test: HotSpot kinase assay; format: biochemical; conditions: read-out: % Enzyme Activity (relative to DMSO controls)
T13 construct: purchased Reaction Biology Corporation

[14] = target: T14, GRK5 (Homo sapiens, UniProt P34947); test: HotSpot kinase assay; format: biochemical; conditions: read-out: % Enzyme Activity (relative to DMSO controls)
T14 construct: purchased Reaction Biology Corporation

[15] = target: T15, HCK (Homo sapiens, UniProt P08631); test: HotSpot kinase assay; format: biochemical; conditions: read-out: % Enzyme Activity (relative to DMSO controls)
T15 construct: purchased Reaction Biology Corporation

[16] = target: T16, IKKe/IKBKE (Homo sapiens, UniProt Q14164); test: HotSpot kinase assay; format: biochemical; conditions: read-out: % Enzyme Activity (relative to DMSO controls)
T16 construct: purchased Reaction Biology Corporation

[17] = target: T17, ITK (Homo sapiens, UniProt Q08881); test: HotSpot kinase assay; format: biochemical; conditions: read-out: % Enzyme Activity (relative to DMSO controls)
T17 construct: purchased Reaction Biology Corporation

[18] = target: T18, MAPKAPK3 (Homo sapiens, UniProt Q16644); test: HotSpot kinase assay; format: biochemical; conditions: read-out: % Enzyme Activity (relative to DMSO controls)
T18 construct: purchased Reaction Biology Corporation
T18 sequence (Q16644 whole entry): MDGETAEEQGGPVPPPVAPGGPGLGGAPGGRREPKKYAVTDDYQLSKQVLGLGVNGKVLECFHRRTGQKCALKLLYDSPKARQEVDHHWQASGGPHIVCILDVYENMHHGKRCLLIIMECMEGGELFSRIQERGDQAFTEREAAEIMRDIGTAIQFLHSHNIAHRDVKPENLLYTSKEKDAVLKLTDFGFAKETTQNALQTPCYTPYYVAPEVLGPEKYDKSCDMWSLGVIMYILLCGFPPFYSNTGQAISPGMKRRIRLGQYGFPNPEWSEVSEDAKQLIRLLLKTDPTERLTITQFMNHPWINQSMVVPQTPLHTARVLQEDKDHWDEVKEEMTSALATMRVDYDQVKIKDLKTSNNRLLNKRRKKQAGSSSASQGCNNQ

[19] = target: T19, MEK5 (Homo sapiens, UniProt Q13163); test: HotSpot kinase assay; format: biochemical; conditions: read-out: % Enzyme Activity (relative to DMSO controls)
T19 construct: purchased Reaction Biology Corporation
T19 sequence (Q13163 whole entry): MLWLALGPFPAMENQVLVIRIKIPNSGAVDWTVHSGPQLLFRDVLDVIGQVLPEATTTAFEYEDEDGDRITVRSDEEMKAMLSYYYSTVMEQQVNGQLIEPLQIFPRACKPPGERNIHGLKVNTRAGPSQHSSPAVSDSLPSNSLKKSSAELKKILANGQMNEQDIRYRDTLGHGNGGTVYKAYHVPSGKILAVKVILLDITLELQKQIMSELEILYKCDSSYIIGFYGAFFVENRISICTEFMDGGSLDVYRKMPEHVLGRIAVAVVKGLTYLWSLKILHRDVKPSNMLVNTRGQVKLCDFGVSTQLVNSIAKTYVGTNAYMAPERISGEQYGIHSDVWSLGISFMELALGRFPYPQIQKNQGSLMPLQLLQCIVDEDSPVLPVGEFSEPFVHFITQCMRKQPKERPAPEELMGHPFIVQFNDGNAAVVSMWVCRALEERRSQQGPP

[20] = target: T20, MEKK2 (Homo sapiens, UniProt Q9Y2U5); test: HotSpot kinase assay; format: biochemical; conditions: read-out: % Enzyme Activity (relative to DMSO controls)
T20 construct: purchased Reaction Biology Corporation

[21] = target: T21, MLCK/MYLK (Homo sapiens, UniProt Q15746); test: HotSpot kinase assay; format: biochemical; conditions: read-out: % Enzyme Activity (relative to DMSO controls)
T21 construct: purchased Reaction Biology Corporation
T21 sequence (Q15746 whole entry): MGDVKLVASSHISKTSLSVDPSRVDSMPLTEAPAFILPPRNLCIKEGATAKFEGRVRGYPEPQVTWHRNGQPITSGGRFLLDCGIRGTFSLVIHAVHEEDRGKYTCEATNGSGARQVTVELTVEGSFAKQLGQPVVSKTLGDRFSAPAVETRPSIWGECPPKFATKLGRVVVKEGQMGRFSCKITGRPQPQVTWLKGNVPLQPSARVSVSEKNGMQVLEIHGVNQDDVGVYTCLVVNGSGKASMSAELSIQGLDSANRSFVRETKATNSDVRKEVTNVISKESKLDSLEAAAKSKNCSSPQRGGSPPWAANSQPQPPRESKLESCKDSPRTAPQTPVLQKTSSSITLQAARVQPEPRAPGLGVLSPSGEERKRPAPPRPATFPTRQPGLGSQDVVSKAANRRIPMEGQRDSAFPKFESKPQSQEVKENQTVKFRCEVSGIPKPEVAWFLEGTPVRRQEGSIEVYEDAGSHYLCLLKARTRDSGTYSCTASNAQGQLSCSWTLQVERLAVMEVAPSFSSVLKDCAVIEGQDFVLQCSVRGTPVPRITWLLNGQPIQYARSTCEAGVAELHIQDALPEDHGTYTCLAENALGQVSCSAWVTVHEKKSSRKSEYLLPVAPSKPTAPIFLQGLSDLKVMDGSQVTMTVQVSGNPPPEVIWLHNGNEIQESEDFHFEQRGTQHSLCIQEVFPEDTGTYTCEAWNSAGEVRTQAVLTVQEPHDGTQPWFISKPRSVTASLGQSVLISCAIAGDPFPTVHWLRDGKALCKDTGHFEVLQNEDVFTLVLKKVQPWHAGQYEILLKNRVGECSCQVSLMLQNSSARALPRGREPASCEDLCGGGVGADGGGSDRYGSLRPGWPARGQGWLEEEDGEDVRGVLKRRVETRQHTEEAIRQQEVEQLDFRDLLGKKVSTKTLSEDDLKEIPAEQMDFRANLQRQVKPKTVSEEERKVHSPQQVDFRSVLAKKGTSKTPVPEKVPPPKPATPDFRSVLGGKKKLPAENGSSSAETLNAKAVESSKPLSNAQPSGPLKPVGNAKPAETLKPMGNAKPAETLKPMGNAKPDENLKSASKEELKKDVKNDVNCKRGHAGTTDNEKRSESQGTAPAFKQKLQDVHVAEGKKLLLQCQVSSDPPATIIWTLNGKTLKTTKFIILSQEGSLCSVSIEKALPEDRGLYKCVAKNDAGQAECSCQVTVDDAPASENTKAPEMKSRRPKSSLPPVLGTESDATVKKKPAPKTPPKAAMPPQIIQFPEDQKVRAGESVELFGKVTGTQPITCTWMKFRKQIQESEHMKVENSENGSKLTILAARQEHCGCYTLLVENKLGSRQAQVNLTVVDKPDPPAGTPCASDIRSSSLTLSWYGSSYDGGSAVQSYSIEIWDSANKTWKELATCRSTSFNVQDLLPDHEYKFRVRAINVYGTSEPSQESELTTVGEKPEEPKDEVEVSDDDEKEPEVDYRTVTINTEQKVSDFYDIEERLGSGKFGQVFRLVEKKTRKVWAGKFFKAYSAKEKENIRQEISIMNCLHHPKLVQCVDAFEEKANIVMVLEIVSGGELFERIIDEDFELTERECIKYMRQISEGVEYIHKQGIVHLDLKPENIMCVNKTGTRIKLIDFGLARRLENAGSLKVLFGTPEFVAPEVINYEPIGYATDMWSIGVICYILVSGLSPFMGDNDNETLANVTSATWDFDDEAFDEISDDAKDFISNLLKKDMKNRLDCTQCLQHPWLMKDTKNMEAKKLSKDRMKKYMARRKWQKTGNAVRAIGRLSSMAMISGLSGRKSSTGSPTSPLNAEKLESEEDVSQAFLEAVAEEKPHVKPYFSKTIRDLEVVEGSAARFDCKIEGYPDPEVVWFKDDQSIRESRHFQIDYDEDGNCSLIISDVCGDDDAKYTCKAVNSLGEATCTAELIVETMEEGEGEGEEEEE

[22] = target: T22, MSK2/RPS6KA4 (Homo sapiens, UniProt O75676); test: HotSpot kinase assay; format: biochemical; conditions: read-out: % Enzyme Activity (relative to DMSO controls)
T22 construct: purchased Reaction Biology Corporation

[23] = target: T23, NEK2 (Homo sapiens, UniProt P51955); test: HotSpot kinase assay; format: biochemical; conditions: read-out: % Enzyme Activity (relative to DMSO controls)
T23 construct: purchased Reaction Biology Corporation

[24] = target: T24, PKAcb (Homo sapiens, UniProt P22694); test: HotSpot kinase assay; format: biochemical; conditions: read-out: % Enzyme Activity (relative to DMSO controls)
T24 construct: purchased Reaction Biology Corporation

[25] = target: T25, PKCb1 (Homo sapiens, UniProt P05771); test: biochemical; conditions: read-out: % Enzyme Activity (relative to DMSO controls)
T25 construct: purchased Reaction Biology Corporation

[26] = target: T26, PKCmu/PRKD1 (Homo sapiens, UniProt Q15139); test: HotSpot kinase assay; format: biochemical; conditions: read-out: % Enzyme Activity (relative to DMSO controls)
T26 construct: purchased Reaction Biology Corporation

[27] = target: T27, PKG1b (Homo sapiens, UniProt Q13976); test: HotSpot kinase assay; format: biochemical; conditions: read-out: % Enzyme Activity (relative to DMSO controls)
T27 construct: purchased Reaction Biology Corporation

[28] = target: T28, ROCK1 (Homo sapiens, UniProt Q13464); test: HotSpot kinase assay; format: biochemical; conditions: read-out: % Enzyme Activity (relative to DMSO controls)
T28 construct: purchased Reaction Biology Corporation

[29] = target: T29, SNARK/NUAK2 (Homo sapiens, UniProt Q9H093); test: HotSpot kinase assay; format: biochemical; conditions: read-out: % Enzyme Activity (relative to DMSO controls)
T29 construct: purchased Reaction Biology Corporation

[30] = target: T30, SSTK/TSSK6 (Homo sapiens, UniProt Q9BXA6); test: HotSpot kinase assay; format: biochemical; conditions: read-out: % Enzyme Activity (relative to DMSO controls)
T30 construct: purchased Reaction Biology Corporation

[31] = target: T31, STK38/NDR1 (Homo sapiens, UniProt Q15208); test: HotSpot kinase assay; format: biochemical; conditions: read-out: % Enzyme Activity (relative to DMSO controls)
T31 construct: purchased Reaction Biology Corporation

[32] = target: T32, STK38L/NDR2 (Homo sapiens, UniProt Q9Y2H1); test: HotSpot kinase assay; format: biochemical; conditions: read-out: % Enzyme Activity (relative to DMSO controls)
T32 construct: purchased Reaction Biology Corporation
T32 sequence (Q9Y2H1 whole entry): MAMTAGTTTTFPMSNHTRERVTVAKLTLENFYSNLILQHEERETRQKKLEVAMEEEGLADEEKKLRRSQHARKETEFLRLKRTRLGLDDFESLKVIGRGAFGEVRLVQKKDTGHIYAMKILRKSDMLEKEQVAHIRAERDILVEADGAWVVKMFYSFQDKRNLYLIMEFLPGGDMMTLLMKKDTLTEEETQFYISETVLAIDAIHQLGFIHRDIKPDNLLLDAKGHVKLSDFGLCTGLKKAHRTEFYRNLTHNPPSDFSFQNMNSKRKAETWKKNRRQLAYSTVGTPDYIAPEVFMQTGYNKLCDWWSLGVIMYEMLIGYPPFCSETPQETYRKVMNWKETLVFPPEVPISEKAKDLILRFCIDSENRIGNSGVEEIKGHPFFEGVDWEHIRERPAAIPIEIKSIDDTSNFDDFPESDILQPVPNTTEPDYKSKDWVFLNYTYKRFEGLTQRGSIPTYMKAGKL

[33] = target: T33, SYK (Homo sapiens, UniProt P43405); test: HotSpot kinase assay; format: biochemical; conditions: read-out: % Enzyme Activity (relative to DMSO controls)
T33 construct: purchased Reaction Biology Corporation

[34] = target: T34, TAOK2/TAO1 (Homo sapiens, UniProt Q9UL54); test: HotSpot kinase assay; format: biochemical; conditions: read-out: % Enzyme Activity (relative to DMSO controls)
T34 construct: purchased Reaction Biology Corporation

[35] = target: T35, TBK1 (Homo sapiens, UniProt Q9UHD2); test: HotSpot kinase assay; format: biochemical; conditions: read-out: % Enzyme Activity (relative to DMSO controls)
T35 construct: purchased Reaction Biology Corporation

[36] = target: T36, TEC (Homo sapiens, UniProt P42680); test: HotSpot kinase assay; format: biochemical; conditions: read-out: % Enzyme Activity (relative to DMSO controls)
T36 construct: purchased Reaction Biology Corporation

[37] = target: T37, TYK2 (Homo sapiens, UniProt P29597); test: HotSpot kinase assay; format: biochemical; conditions: read-out: % Enzyme Activity (relative to DMSO controls)
T37 construct: purchased Reaction Biology Corporation
T37 sequence (P29597 whole entry): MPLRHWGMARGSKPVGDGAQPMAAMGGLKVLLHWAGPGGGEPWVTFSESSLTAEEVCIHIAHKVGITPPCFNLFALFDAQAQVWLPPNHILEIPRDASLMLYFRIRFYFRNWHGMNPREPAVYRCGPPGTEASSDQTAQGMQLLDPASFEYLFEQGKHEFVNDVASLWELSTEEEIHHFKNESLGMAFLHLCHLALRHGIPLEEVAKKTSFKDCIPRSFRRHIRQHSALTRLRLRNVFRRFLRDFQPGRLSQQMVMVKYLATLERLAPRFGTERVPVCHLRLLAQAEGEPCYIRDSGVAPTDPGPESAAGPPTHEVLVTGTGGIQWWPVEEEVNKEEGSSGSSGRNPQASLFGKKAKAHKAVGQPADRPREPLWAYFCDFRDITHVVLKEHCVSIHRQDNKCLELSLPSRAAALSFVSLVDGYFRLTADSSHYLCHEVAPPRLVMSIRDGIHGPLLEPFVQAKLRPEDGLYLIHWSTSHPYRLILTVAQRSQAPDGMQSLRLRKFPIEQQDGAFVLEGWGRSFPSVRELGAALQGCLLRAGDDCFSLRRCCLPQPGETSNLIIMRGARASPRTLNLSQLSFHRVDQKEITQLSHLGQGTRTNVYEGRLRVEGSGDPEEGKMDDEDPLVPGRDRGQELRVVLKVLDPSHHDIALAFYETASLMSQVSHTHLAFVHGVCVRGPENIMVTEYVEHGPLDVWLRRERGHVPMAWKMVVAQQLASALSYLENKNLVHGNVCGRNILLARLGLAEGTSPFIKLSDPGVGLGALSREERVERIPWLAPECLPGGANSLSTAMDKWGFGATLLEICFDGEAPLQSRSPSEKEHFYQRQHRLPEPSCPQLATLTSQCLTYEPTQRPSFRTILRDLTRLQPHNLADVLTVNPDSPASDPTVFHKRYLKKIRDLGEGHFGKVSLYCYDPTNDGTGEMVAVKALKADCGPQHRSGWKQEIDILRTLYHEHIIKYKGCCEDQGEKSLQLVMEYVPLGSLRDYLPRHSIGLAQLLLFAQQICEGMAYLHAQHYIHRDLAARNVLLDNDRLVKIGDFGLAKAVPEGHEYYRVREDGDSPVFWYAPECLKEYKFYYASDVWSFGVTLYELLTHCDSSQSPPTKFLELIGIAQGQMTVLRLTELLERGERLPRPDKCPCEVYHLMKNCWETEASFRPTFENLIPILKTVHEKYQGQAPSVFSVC

[38] = target: T38, WNK1 (Homo sapiens, UniProt Q9H4A3); test: HotSpot kinase assay; format: biochemical; conditions: read-out: % Enzyme Activity (relative to DMSO controls)
T38 construct: purchased Reaction Biology Corporation

[39] = system: HSV-2(G); test: HSV plaque assay, primary vaginal cells; format: cell-based; conditions: Human alphaherpesvirus 2, read-out: inhibition of HSV-2 infection
Method: After 48 h incubation, plaques were counted by immunoassay using an anti–human IgG antibody peroxidase conjugate (PA1-86064, Thermo Fisher)[33]. […] Western blots were prepared and probed for gD as a marker of bound virus and β-actin as a control.

[40] = system: MDCK-MDR1 cell; conditions: 5 µM
[41] = system: HaCat cells; test: western blot for cleaved PARP-1 or cleaved caspase 8; conditions: 0.1, 1, or 10 µM, 8 h

T2 sequence (Q9Y243 whole entry): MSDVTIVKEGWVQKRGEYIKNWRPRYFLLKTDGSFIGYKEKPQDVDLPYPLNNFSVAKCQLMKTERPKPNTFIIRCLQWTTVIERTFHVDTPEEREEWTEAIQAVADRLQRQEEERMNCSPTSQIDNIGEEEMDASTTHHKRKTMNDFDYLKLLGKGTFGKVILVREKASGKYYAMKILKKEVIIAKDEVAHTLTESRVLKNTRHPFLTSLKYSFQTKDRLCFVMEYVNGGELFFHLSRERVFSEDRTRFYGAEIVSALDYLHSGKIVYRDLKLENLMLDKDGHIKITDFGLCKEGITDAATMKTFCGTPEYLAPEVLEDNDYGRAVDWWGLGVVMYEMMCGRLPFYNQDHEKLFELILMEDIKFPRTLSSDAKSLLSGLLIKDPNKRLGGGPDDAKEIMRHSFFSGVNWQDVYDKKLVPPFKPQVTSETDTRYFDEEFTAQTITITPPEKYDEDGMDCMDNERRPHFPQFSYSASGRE

`CO[C@@H]1[C@H](N(C)C(=O)CCC(=O)NCc2cn(CCCS(=O)(=O)O)nn2)C[C@H]2O[C@]1(C)n1c3ccccc3c3c4c(c5c6ccccc6n2c5c31)C(=O)NC4` [CIMSS] was tested. Which remaining activity at 10 µM [1] did it give?
Its remaining activity at 10 µM is 4.07%.

What about the IC50 ([2]; Supplementary Table 1, read-out: IC50 (Molar concentration)) of the same compound?
The IC50 was 157 nM.

What about the remaining activity at 10 µM ([2]; read-out: % Enzyme Activity (relative to DMSO controls), 10µM) of the same compound?
The remaining activity at 10 µM was 11.4%.

And the inhibition at 10 µM ([2]; read-out: inhibition of Akt3)?
Its inhibition at 10 µM is greater than 75%.

What about the remaining activity at 10 µM [3] of the same compound?
Its remaining activity at 10 µM is 2.59%.

And the remaining activity at 10 µM [4]?
Its remaining activity at 10 µM is 0.34%.

And the remaining activity at 10 µM [5]?
The remaining activity at 10 µM was 18%.

And the remaining activity at 10 µM [6]?
Its remaining activity at 10 µM is 74.5%.

And the remaining activity at 10 µM [7]?
Its remaining activity at 10 µM is 76.6%.

What about the remaining activity at 10 µM [8] of the same compound?
Its remaining activity at 10 µM is 68.8%.

What about the remaining activity at 10 µM [9] of the same compound?
Its remaining activity at 10 µM is 25.4%.

What about the remaining activity at 10 µM [10] of the same compound?
Its remaining activity at 10 µM is 35.4%.

And the remaining activity at 10 µM [11]?
The remaining activity at 10 µM was 35.9%.

And the remaining activity at 10 µM [12]?
The remaining activity at 10 µM was 2.77%.

What about the remaining activity at 10 µM [13] of the same compound?
Its remaining activity at 10 µM is 2.58%.

What about the remaining activity at 10 µM [14] of the same compound?
Its remaining activity at 10 µM is 7.35%.

What about the remaining activity at 10 µM [15] of the same compound?
Its remaining activity at 10 µM is 7.23%.

And the remaining activity at 10 µM [16]?
Its remaining activity at 10 µM is 1.47%.

And the remaining activity at 10 µM [17]?
Its remaining activity at 10 µM is 4.12%.

What about the remaining activity at 10 µM [18] of the same compound?
Its remaining activity at 10 µM is 87.5%.

And the remaining activity at 10 µM [19]?
The remaining activity at 10 µM was 40.4%.

What about the remaining activity at 10 µM [20] of the same compound?
Its remaining activity at 10 µM is 8.32%.

And the remaining activity at 10 µM [21]?
The remaining activity at 10 µM was 15.5%.

And the remaining activity at 10 µM [22]?
Its remaining activity at 10 µM is 2.11%.

What about the remaining activity at 10 µM [23] of the same compound?
Its remaining activity at 10 µM is 18.8%.

What about the remaining activity at 10 µM [24] of the same compound?
Its remaining activity at 10 µM is 1.62%.

And the remaining activity at 10 µM [25]?
The remaining activity at 10 µM was 2.83%.

What about the remaining activity at 10 µM [26] of the same compound?
The remaining activity at 10 µM was 30.3%.

What about the remaining activity at 10 µM [27] of the same compound?
Its remaining activity at 10 µM is 13.9%.

What about the remaining activity at 10 µM [28] of the same compound?
The remaining activity at 10 µM was 26.2%.

And the remaining activity at 10 µM [29]?
Its remaining activity at 10 µM is 2.16%.

What about the remaining activity at 10 µM [30] of the same compound?
Its remaining activity at 10 µM is 95.7%.

What about the remaining activity at 10 µM [31] of the same compound?
Its remaining activity at 10 µM is 8.29%.

And the remaining activity at 10 µM [32]?
Its remaining activity at 10 µM is 22.7%.

What about the remaining activity at 10 µM [33] of the same compound?
Its remaining activity at 10 µM is 0.87%.

What about the remaining activity at 10 µM [34] of the same compound?
Its remaining activity at 10 µM is 36.3%.

What about the remaining activity at 10 µM [35] of the same compound?
The remaining activity at 10 µM was 2.01%.

And the remaining activity at 10 µM [36]?
Its remaining activity at 10 µM is 19.9%.

What about the remaining activity at 10 µM [37] of the same compound?
Its remaining activity at 10 µM is 6.35%.

And the remaining activity at 10 µM [38]?
Its remaining activity at 10 µM is 110%.

And the inhibition at 10 µM [39]?
The inhibition at 10 µM was greater than 75%.

What about the Recover % [40] of the same compound?
Its Recover % is 96%.

What about the “PARP-1 or caspase 8 cleavage” value [41] of the same compound?
The value was “did not induce”.

From paper PMC9569420 (Communications Biology, 2022)
